The text below walks through data of patent US20250387486A1, “LIPID COMPOSITION” (STEMIRNA THERAPEUTICS CO., LTD., priority 2022, published 2025).

For this assay, the system named is B16F10 tumor-bearing mice. Nature of the assay: Luciferase expression tumor/whole body after intratumoral injection, B16F10 tumor-bearing mice. In kind it is in vivo, C57BL/6 mice. Conditions: for LNP (tumor/whole body)% ratio of luciferase expression: cationic lipid:DSPC:PEG-DMG:cholesterol 50:10:1.5:38.5 (groups 1-1 to 1-3); for LNP (tumor/whole body)% ratio of luciferase expression / LPP (tumor/whole body)% ratio of luciferase expression: 5 μg luciferase mRNA intratumoral, 6 hours; for LPP (tumor/whole body)% ratio of luciferase expression: cationic lipid:DSPC:PEG-DMG:cholesterol 50:10:1.5:38.5 (groups 1-4 to 1-6). The protocol:
(§1) Female C57BL/6 mice (Beijing Vital River Laboratory Animal Technology Co., Ltd.) of 6 weeks of age with a weight of around 20 g were used, and each mouse was injected subcutaneously unilaterally with 1×10^6 murine-derived cutaneous melanoma cells, B16F10 cells. When tumors grew to a size of about 450 mm^3, B16F10 tumor-bearing mice were divided into 6 groups (1-1, 1-2, 1-3, 1-4, 1-5, and 1-6 groups, with 3 mice per group), and LPP and LNP solutions (50 μL) containing 5 μg of luciferase mRNA prepared by the prescriptions were respectively taken and administered to the mice by intratumoral injection. 6 hours after the administration, mice were injected intraperitoneally with a 150 mg/kg […] substrate. The bioluminescence was measured in a Xenogen IVIS-200 imaging system 7 minutes after substrate injection to evaluate the expression and distribution of the luciferase mRNA in the mice.
as §1, with “into 8” for “into 6”, “groups (2-1, 2-2, 2-3, 2-4, 2-5, 2-6, 2-7,” for “groups (1-1, 1-2, 1-3, 1-4, 1-5,”, “and 2-8” for “and 1-6”, “and” for “and LPP and LNP”
as §1, with “mm^3, the” for “mm^3, B16F10 tumor-bearing”, “into 8” for “into 6”, “groups (3-1, 3-2, 3-3, 3-4, 3-5, 3-6, 3-7, 3-8” for “groups (1-1, 1-2, 1-3, 1-4, 1-5, and 1-6”, “and” for “and LPP and LNP”

In the case of `CCCCCCCCCOC(=O)CCCCCCCN(CCO)CCCCCCCC(=O)OCCCc1ccc(CCCCC)c(CCCCC)c1` [SW-II-135-1], the “LNP (tumor/whole body)% ratio of luciferase expression” value (shortened to “LNP (tumor/whole body)% ratio”) is 43.6 ± 34.7% and the “LPP (tumor/whole body)% ratio of luciferase expression” value (“LPP (tumor/whole body)% ratio” for short) came out at 58.6 ± 36.4%. Also, for the setting “Example 3, versus ALC-0315 and SW-II-127”, the “ratio of luciferase expression of tumor/whole body, rank among cationic lipids” value is reported as “highest ratio of luciferase expression of tumor/whole body”.
As for `CCCCCCCCC(CCCCCC)C(=O)OCCCCCCN(CCCCO)CCCCCCOC(=O)C(CCCCCC)CCCCCCCC` (stereo not shown) [ALC-0315, reference compound], the “LNP (tumor/whole body)% ratio” value amounted to 4.9% and the “LPP (tumor/whole body)% ratio” value was 11.2 ± 7.9%.
Regarding `CCCCCCCCC(CCCCCCCC)OC(=O)CCCCCCCN(CCO)CCCCCCC(=O)OCc1ccc(CCCCCC)cc1` [SW-II-127], the “LNP (tumor/whole body)% ratio” value came to 15.0 ± 18.5% and the “LPP (tumor/whole body)% ratio” value came to 25.7 ± 15.1%.
